Entries after “also recorded” stand apart in the source; their conditions may differ.

The results in this text go back to patent US8679499B2, “Methods for relieving asthma-associated airway hyperresponsiveness” (The Board of Trustees of the Leland Stanford Junior …, priority 2004, dated 2014).

In data set [1] the test system is NKT cells. Put plainly: Serum IFN-γ and IL-4 (ELISA) after i.p. glycolipid injection; NKT cell activation in vivo. More on the design: species or system C57BL/6 mice. The settings on record: 6 hours. How it is done: The i.p. injection of a galactosyl ceramide (obtained from Brigham Young University, Provo, Utah) into C57BL/6 mice increases serum levels of IL-4 and IFN-γ by selectively activating NKT cells. Injection of C12 β galactosyl ceramide (Avanti Lipids, Inc.) i.p. antagonizes the ability of α galactosyl ceramide to raise the levels of IL-4, interferon-gamma, and IgE in the serum of these mice.
Male C57BL/6 mice of about 8 weeks of age were given either 100 μg of β galactosyl ceramide (β Galcer) i.p., 0.1 μg of α galactosyl ceramide (α Galcer) i.p., 100 μg β Galcer i.p. either 1 hour before or at the same time as 0.1 μg α Galcer i.p., or no treatment. β-Galcer was obtained from Avanti Lipids Inc. Glycolipids were in aqueous solutions with PBS. Cytokine levels were determined by ELISA as previously described by Zeng et al. (2003), supra.
A general note: ELISA stands for enzyme-linked immunosorbent assay.

The test system of data set [2] is NKT cells. Put plainly: Serum IgE and IgG2c before and 10 days after a single i.p. glycolipid injection. The format is in vivo, C57BL/6 mice. How it is done: In a separate experiment, mean serum IgE levels of groups of three C57BL/6 mice were measured before or 10 days after a single i.p. injection of 0.1 μg α Galcer alone, 100 μg β Galcer alone, or 100 μg of β Galcer injected 1 hour before 0.1 μg α Galcer. […] The bars show means of triplicate determinations, and the brackets show standard deviations. […] We conclude that β Galcer blocks the increase in serum IgE levels induced by α Galcer. No significant change is seen with the control IgG2c expression.

Data set [3] concerns mice with α-GalCer induced airway hyperresponsiveness (AHR). Put plainly: α-GalCer induced airway hyperresponsiveness (AHR), methacholine whole body plethysmograph. Format: in vivo, BALB/c mice. How it is done:
(§1) In murine model of asthma, β-GalCer was administered to OVA-immunized BALB/c mice, or mice with α-GalCer induced airway hyperresponsiveness (AHR).
(§2) Immunizations. BALB/c mice were primed in the footpads with OVA (100 μg/mouse) adsorbed to 200 μg of alum (Al[OH]3). Mice were challenged with 50 μg OVA in 50 μl NaCl 0.9% intranasally 7, 8, and 9 days later. One day after the last intranasal challenge with OVA, airway hyperreactivity was measured from conscious mice after inhalation of increasing concentrations of methacholine in a whole body plethysmograph Immunization with α-GalCer was performed as described.
(§3) Measurement of Airway Responsiveness. Airway responsiveness was assessed by methacholine-induced airflow obstruction from conscious mice placed in a whole body plethysmograph (model PLY 3211, Buxco Electronics Inc., Troy, N.Y.). Pulmonary airflow obstruction was measured by Penh using the following formula:
(§4) [formula] where Penh=enhanced pause (dimensionless), Te=expiratory time, RT=relaxation time, PEF=peak expiratory flow (mI/s), and PIF=peak inspiratory flow (mI/s) (Hamelmann et al. (1997) Am. J. Respir. Crit. Care Med. 156:766-75. Enhanced pause (Penh), minute volume, tidal volume, and breathing frequency were obtained from chamber, pressure, measured with a transducer (model TRD5100) connected to preamplifier modules (model MAX2270) and analyzed by system XA software (model SFT 1810). Measurements of methacholine responsiveness were obtained by exposing mice for 2 min to NaCI 0.9%
(§5) Collection of BAL Fluid and Lung Histology. Animals were injected i.p. with a lethal dose of phenobarbital (450 mg/kg). The trachea was cannulated, and the lung was then lavaged with 0.8 ml of PBS three times, and the fluid pooled. Cells in the lavage fluid were counted using a hemocytometer and BAL cell differentials were determined on slide preparations stained with Hansel Stain (Lide Laboratories, Florissant, Mo.). At least 200 cells were differentiated by light microscopy based on conventional morphologic criteria. In some animals, no BAL was performed but lungs were removed, washed with PBS, fixed in 10% formalin and stained with hematoxylin and eosin.
A minimum of 4 mice per group were used.

The subject of data set [4] is OVA-immunized BALB/c mice. Put plainly: OVA/alum induced AHR, murine model of asthma. Format: in vivo. How it is done:
as §1, §2
Cytokine ELISA. ELISAS were performed as previously described Macaulay et al. (1998) J. Immunol. 160:1694-1700. The antibody pairs used were as follows, listed by capture/biotinylated detection: IL-4, BVD4-1D11/BVD6-24G2; IFN-γ, R4-6A2/XMG1.2. Recombinant cytokine were used as standards, with curves generated in 1:2 dilutions from […] to 39 pg/ml for IL-4, and 20-2, 156 ng/ml for IFN-γ.
Measurement of anti-OVA antibody isotypes. Mice were bled at the time of sacrifice and OVA-specific antibody was measured using a modified antigen-specific ELISA. For measurement of OVA specific IgG, plates were coated overnight with 5 μg/ml OVA. After washing and blocking, serial diluted sera were added to the plates. Following overnight incubation, the plates were developed using HRPO-conjugated goat anti-IgG subclass-specific antibodies (Southern Biotechnology Associates, Birmingham, Ala.). After additional washing, OPD substrate was added, the plates developed and the OD determined at 492 nm Anti-OVA IgG1 mAb 6C1 and anti-OVA IgG2a mAb 3A11 were used as standards for quantitation of each IgG subclass. Determination of OVA-specific IgE was performed by ELISA, using rat anti-mouse IgE mAb EM95 (5.0 μg/ml) to coat plates. After the samples were applied and incubated overnight, plates were washed and biotinylated OVA (10 μg/ml) was added. Two hours later, plates were washed and HRPO-conjugated streptavidin (Southern Biotechnology Associates) was added. Plates were developed with OPD substrate and the OD determined at 492 nm Sera from mice hyperimmunized with OVA in alum was quantitated for IgE and used as standard for the OVA-specific IgE ELISA.
as §3, §4, §5
(a) AHR was measured on day 10. C12-β-GalCer was administered i.v. (100 μg) 1 day prior to OVA/alum sensitization and 6 hours prior to each i.n. challenge (100 μg). […]

Data set [5] deals with NKT cells. Put plainly: Oral administration of β-galactosyl ceramide: serum cytokines and liver NKT cell markers. Format: in vivo, mouse. How it is done: Doses of β-galactosyl ceramide ranging from 100-800 μg/mouse were administered orally. Cytokine levels of IFN-γ and IL-4 were determined by ELISA as previously described by Zeng et al. (2003), supra. from serum levels.

The next data set concerns NZBxNZW mouse. Put plainly: Murine model for systemic lupus erythematosus, proteinuria. Format: in vivo. As to conditions: high dose (100 μg/mouse) injected twice weekly, at 38 weeks; PBS control approximately 30%. How it is done: In a murine model for systemic lupus erythematosus, the NZBxNZW mouse, animals were injected twice weekly with one of: PBS, 50 μg/mouse β-galactosyl ceramide, or 100 μg/mouse β-galactosyl ceramide. The animals were analyzed for proteinuria, which is an indication of the development of lupus. In the control group of 15 mice, at 38 weeks, approximately 30% of the mice were without proteinuria, while approximately 80% of the mice treated with the high dose of β-galactosyl ceramide were without proteinuria.

Where [6] appears, read: glycolipid alone i.p. (100 μg β Galcer or 0.1 μg α Galcer), untreated about 50 pg/ml.
Where [7] appears, read: C12-β-GalCer treated group versus OVA/alum positive control.
The mark [8] stands for this setting: C12-β-GalCer treated group, four days in culture with 62.5 μg/ml OVA.

For `CCCCCCCCCCCCCCCCCCCCCCCCCC(=O)N[C@@H](CO[C@H]1O[C@H](CO)[C@H](O)[C@H](O)[C@H]1O)[C@H](O)[C@H](O)CCCCCCCCCCCCCC` [α Galcer, α galactosyl ceramide, reference compound], in the data set with NKT cells [1] (0.1 μg α Galcer alone i.p.), the “serum IL-4 level” value worked out at 1000 pg/mL. Besides, the “increase of serum IL-4 level” value with NKT cells [1] (0.1 μg α Galcer alone i.p., versus untreated) is listed as “about 10 fold”. Also, the “serum IFN-γ level” value in the data set on NKT cells [1] (setting [6]) was “increased the level more than two fold”. Moreover, the “rise of serum IgE level” value with NKT cells [2] (0.1 μg α Galcer alone i.p., 10 days after versus before) is “about three fold”.
In the case of `CCCCCCCCCCCCC/C=C/[C@@H](O)[C@H](CO[C@@H]1O[C@H](CO)[C@H](O)[C@H](O)[C@H]1O)NC(=O)CCCCCCCCCCC` [β Galcer, C12 β galactosyl ceramide], the “serum IL-4 level” value in the data set with NKT cells [1] (100 μg β Galcer alone i.p., untreated about 100 pg/ml) is listed as “did not increase the level”; with NKT cells [1] (100 μg β Galcer and 0.1 μg α Galcer given at the same time) it was “about 250 pg/ml”; with NKT cells [5] (oral, 100-800 μg/mouse) it was “A similar pattern was observed”. Also, the “serum IFN-γ level” value in the data set with NKT cells [1] (100 μg β Galcer i.p. 1 hour before 0.1 μg α Galcer i.p.) is “below 40 pg/ml”; in the data set with NKT cells [1] (100 μg β Galcer i.p. at the same time as 0.1 μg α Galcer i.p.) it was “below 40 pg/ml”; in the data set on NKT cells [1] (setting [6]), “did not increase the level”; with NKT cells [5] (oral, 100-800 μg/mouse, 24 hours after administration), “no increase in serum levels at any dose”. Further, the “increase of serum IL-4 induced by α Galcer” value in the data set on NKT cells [1] (100 μg β Galcer one hour before 0.1 μg α Galcer) is “completely blocked”. For the same compound, in the data set with NKT cells [2] (treatment with β-Galcer, FIG. 1D), the “synthesis of IgG2c (control)” value is reported as “not affected”. Besides, the AHR result was “greatly reduces 24 hours AHR” in data set [3] (50 μg i.n. and i.v. 2 hours prior to 0.5 μg α-GalCer i.n., 24 hours AHR); “greatly reduces AHR; also recorded: blocks α-GalCer induced AHR” in data set [3] (100 μg C12-β-GalCer i.v. 2 hours prior to 1.5 μg α-GalCer i.n., AHR at 24 hours); “reduce AHR; also recorded: reduces OVA/alum induced AHR” in data set [4] (C12-β-GalCer 100 μg i.v. 1 day prior to OVA/alum sensitization and 6 hours prior to each i.n. challenge, AHR day 10). In addition, the entries for the “AHR induced by the agent itself” value in data set [3] (C12-β-GalCer administered i.n.) and in data set [3] (C12-β-GalCer i.v. alone) were “induces mild AHR” and “does not induce any AHR”, respectively. In data set [3] (C12-β-GalCer treatment), the “peri-bronchiolar eosinophilic inflammation (histology)” value is listed as “reduced peri-bronchiolar eosinophilic inflammation”. Besides, the “serum IFN-γ” value in data set [3] (following α-GalCer induced AHR) is on record as “more serum IFN-γ”. In addition, the “lung inflammation (histology)” value in data set [3] (i.v. injection of C12-β-GalCer by itself) is given as “does not result in any lung inflammation”. The “eosinophilic infiltration of the lungs (histology)” value in data set [4] (setting [7]) is reported as “reduced but present”. The “neutrophilia in the lungs (histology)” value in data set [4] (setting [7]) is “possibly more neutrophilia”. In data set [4] (C12-β-GalCer treated group, 100 μg i.v.), the “serum OVA-specific IgE” value is on record as “reduced”. Also, the “IFN-γ produced by lymph node cells” value in data set [4] (setting [8]) is “slightly more IFN-γ”. In addition, in data set [4] (setting [8]), the “IL-4 produced by lymph node cells” value is listed as “less IL-4”. Further, the “staining for NKT cell markers in the liver” value in the data set on NKT cells [5] (oral administration, FIG. 5) is “decreased staining for NKT cell markers in the liver”. In addition, the mice without proteinuria result in the data set with NZBxNZW mouse is given as “approximately 80%”.
